The text below walks through data of ChEMBL document CHEMBL3124761, “Synthesis and biological evaluation of N,N'-squaramides with high in vivo efficacy and low toxicity: toward a low-cost drug against Chagas disease” (J Med Chem, 2014).

For orientation: IC50 means the concentration that inhibits the measured activity by half. As a reminder, the inhibition in vivo is the change of the read-out against control, counted positive when it falls.

The nature of series [1]: Selectivity index, ratio of IC50 for African green monkey Vero cells to IC50 for amastigote stage of Trypanosoma cruzi IRHOD/CO/2008/SN3 infected in African green monkey Vero cells. The class given is toxicity, cell-based. The conditions noted are these: read-out: Ratio IC50.
A short description of series [2]: Selectivity index, ratio of IC50 for African green monkey Vero cells to IC50 for epimastigote stage of Trypanosoma cruzi IRHOD/CO/2008/SN3. The class given is toxicity, cell-based. The conditions noted are these: read-out: Ratio IC50.
Series [3] concerns Vero. The experiment in a line: Cytotoxicity against African green monkey Vero cells assessed as cell viability after 72 hrs by propidium iodide/fluorescein diacetate staining-based flow cytometric analysis. The conditions noted are these: Chlorocebus sabaeus. (In general: In flow cytometry, cells or beads pass a laser one at a time.)
Series [4] has as its system Trypanosoma cruzi. The experiment in a line: Antitrypanosomal activity against amastigote stage of Trypanosoma cruzi IRHOD/CO/2008/SN3 infected in African green monkey Vero cells assessed as parasite growth inhibition after 72 hrs by Giemsa staining-based microscopic analysis. Type of series: functional, organism-based. The conditions noted are these: IRHOD/CO/2008/SN3, Vero.

In series [5] the test system is Trypanosoma cruzi. The experiment in a line: Antitrypanosomal activity against epimastigote stage of Trypanosoma cruzi IRHOD/CO/2008/SN3 assessed as parasite growth inhibition after 72 hrs by Neubauer hemocytometric chamber analysis. Type of series: functional, organism-based. The conditions noted are these: IRHOD/CO/2008/SN3, 72 h.
Series [6] has as its system Trypanosoma cruzi. The experiment in a line: Trypanocidal activity against metacyclic trypomastigote stage of Trypanosoma cruzi infected in BALB/c albino mouse acute chagas disease model assessed as inhibition of parasitemia at 25 mg/kg, ip administered on day 7 to 12 post-infection measured every 2 days until day 40 […] relative to control. Type of series: functional. The conditions noted are these: route intraperitoneal. Background: In an ELISA, binding on a coated surface is turned into a signal by an enzyme label.

In series [7] the test system is Trypanosoma cruzi. The experiment in a line: Trypanocidal activity against metacyclic trypomastigote stage of Trypanosoma cruzi infected in BALB/c albino mouse acute chagas disease model assessed as reduction of parasite burden at 25 mg/kg, ip administered on day 7 to 12 post-infection measured on day 14 by ELISA. The class given is functional, organism-based. On the set-up: dose 25 mg/kg.

The subject of series [8] is Trypanosoma cruzi. The experiment in a line: Antitrypanosomal activity against trypomastigote stage of Trypanosoma cruzi IRHOD/CO/2008/SN3 assessed as reduction of trypomastigote number per mililiter of culture medium at IC25 preincubated for 12 hrs followed by compound washout measured every 48 hrs for 10 days by Neubauer hemocytometric chamber analysis relative to control. The class given is functional.

In series [9] the test system is Trypanosoma cruzi. The experiment in a line: Antitrypanosomal activity against amastigote stage of Trypanosoma cruzi IRHOD/CO/2008/SN3 infected in African green monkey Vero cells assessed as reduction of amastigote number per cell at IC25 preincubated for 12 hrs followed by compound washout measured every 48 hrs for 10 days by Neubauer hemocytometric chamber analysis relative to control. The class given is functional.

Series [10] has as its system Trypanosoma cruzi. The experiment in a line: Antitrypanosomal activity against amastigote stage of Trypanosoma cruzi IRHOD/CO/2008/SN3 infected in African green monkey Vero cells assessed as decrease in infection rate at IC25 preincubated for 12 hrs followed by compound washout measured every 48 hrs for 10 days by Neubauer hemocytometric chamber analysis relative to control. Type of series: functional.

Active and inactive are the calls of the source. No cut-off for these calls is given here.

In the case of `NCc1ccc(Nc2c(O)c(=O)c2=O)cc1`, the selectivity ratio amounted to 0.5 in series [1] and 0.4 in series [2]. Further, the IC50 stood at 36.6 µM in [3], 72.6 µM in series [4] and 89.1 µM in [5].
Turning to `O=C(Cn1ccnc1[N+](=O)[O-])NCc1ccccc1` [BENZNIDAZOLE], the inhibition in vivo at 25 mg/kg in series [6] was 26%. Also, in series [7], the outcome was Active. Moreover, the figures for the “inhibition (INH)” value in [8], in [9] and in [10] were 21%, 15% and 20%, respectively.
As for `CCCCCCCCCCCCCCCCNc1c(NCC[N+](C)(C)C)c(=O)c1=O`, the values for the selectivity ratio in series [1] and in series [2] were 5.7 and 3.4, respectively. The IC50 in series [3] came out at 151 µM; in series [4], 26.3 µM; in [5], 44.9 µM.
The like results for `O=c1c(O)c(Nc2ccccc2O)c1=O` were, in that order, 5.2, 4.5, 228 µM, 44 µM and 50.8 µM.
The like results for `CCOC(=O)c1ccc(Nc2c(O)c(=O)c2=O)cc1` were, in that order, 1.2, 0.8, 21.5 µM, 18.4 µM and 26.3 µM.
Take `CCCCNc1c(NCCCC(=O)O)c(=O)c1=O`: the selectivity ratio in series [1] came out at 0.3; in [2], 1.2. Moreover, the figures for the IC50 in series [3], in [4] and in [5] were 21.6 µM, 66.9 µM and 17.3 µM, respectively.
The like results for `CCCCNc1c(NCC(=O)O)c(=O)c1=O` were, in that order, 2.3, 1.5, 54.8 µM, 23.8 µM and 35.7 µM.
Consider `CCCCCCCCCCCCCCCCNc1c(NCCN(C)C)c(=O)c1=O`, for which the values for the selectivity ratio in series [1] and in series [2] were 3.4 and 1.8, respectively. Also, the IC50 stood at 90.1 µM in [3], 22.4 µM in series [4] and 49.8 µM in series [5].
In the case of `CN(C)c1ccc(Nc2c(O)c(=O)c2=O)cc1`, the values for the selectivity ratio in series [1] and in series [2] were 1.3 and 0.8, respectively. For the same compound, the results for the IC50 in series [3], in series [4] and in series [5] were 12.9 µM, 10.1 µM and 15.9 µM, respectively.
As to `CN(C)CCCNc1c(NCCCNc2c(NCCCN(C)C)c(=O)c2=O)c(=O)c1=O`, the selectivity ratio in [1] stood at 0.2; in [2] it was 0.1. Also, the IC50 came out at 11.4 µM in [3], 46 µM in series [4] and 96.2 µM in series [5].
Take `C[N+](C)(C)CCNc1c(NCc2cccc(CNc3c(NCC[N+](C)(C)C)c(=O)c3=O)c2)c(=O)c1=O`: the selectivity ratio in series [1] stood at 1.7; in series [2] it was 0.6. Also, the figures for the IC50 in [3], in series [4] and in [5] were 73.1 µM, 43.9 µM and 119 µM, respectively.
Taken in the same sequence, the figures for `C[N+](C)(C)CCNc1c(NCc2ccccc2)c(=O)c1=O` were 1.9, 1.2, 74.2 µM, 39.2 µM and 60.8 µM.
On to `CCCCNc1c(NCC[N+](C)(C)C)c(=O)c1=O`, for which the results for the selectivity ratio in series [1] and in series [2] were 1.5 and 0.5, respectively. Moreover, the results for the IC50 in [3], in series [4] and in series [5] were 57.6 µM, 38.5 µM and 107 µM, respectively.
`CN1CCCNc2c(c(=O)c2=O)NCCCN(C)CCCNc2c(c(=O)c2=O)NCCC1`: the selectivity ratio stood at 3.5 in series [1] and 5.1 in series [2]. The results for the IC50 in [3], in series [4] and in series [5] were 111 µM, 31.2 µM and 21.8 µM, respectively.
Taken in the same sequence, the figures for `O=c1c(NCc2ccccc2)c(NC2CCN(Cc3ccccc3)CC2)c1=O` were 9.7, 3.5, 338 µM, 34.7 µM and 96.9 µM.
